Measured values from patent US20190125714A1, “CALPAIN INHIBITORS IN THE PREVENTION AND/OR TREATMENT OF VENTRICULAR REMODELLING” (FUNDAClÓ HOSPITAL UNIVERSITARI VALL D'HEBRON - INSTITUT DE …, priority 2016, published 2019).
Read-outs that look alike come from different tables or passages of the source.

Assays:
[1] = intravenously before initiating ischemia and during a reperfusion of 6 hours; cited from earlier work
[2] = administered at the start (onset) of reperfusion; cited from earlier work
Sprague-Dawley rats [3] = details: for Attenuation of scar area (LV area stained with picrosirius red): 21 days of reperfusion
[4] = added to the cardioplegic solution and during 60 min of reperfusion; cited from earlier work
Sprague-Dawley rats [5] = assay: Myocardial hypertrophy and fibrosis induced by isoproterenol; assay type: in vivo, rat; details: 7 days
Method: Chronic administration of isoproterenol is the most common small animal model in the study of myocardial remodeling. In order to study the effect of calpain inhibition in AVR of a different cause than myocardial infarction, myocardial hypertrophy and fibrosis induced by isoproterenol.
The calpain inhibitor SNJ-1945 was co-administered orally once a day to male Sprague-Dawley rats that received 5 mg/Kg/day isoproterenol (ISO) […] for 1 week. Assayed groups were as follows:
Isoproterenol group (ISO): administration of isoproterenol as a single daily subcutaneous injection for 7 consecutive days.
SNJ-1945 treated group (SNJ+ISO): co-administration of SNJ-1945 (orally) and isoproterenol (subcutaneous) for 7 consecutive days.
Hearts were obtained and compared with vehicle-treated and ISO treated rats not receiving the calpain inhibitor.
Echocardiography was performed using a Vivid portable ultrasound system with a i12L-RS 12 MHz transducer (GE Healthcare) as described earlier (Poncelas, Inserte et al. 2015, “Obesity induced by high fat diet attenuates postinfarct myocardial remodeling and dysfunction in adult B6D2F1 mice”, Journal of Molecular and Cellular Cardiology-2015, vol. no. 84, pp.: 154-161).
For the PCR, total RNA was extracted from ischemic and non-ischemic area of heart samples of the three assayed groups using TRIsure™ reagent (BIOLINE, UK) following the manufacturer's protocol. Quantitative RT-PCR was performed using Taqman universal PCR master mix (Applied Biosystems, USA). The amplification program consisted of 50° C. for 2 minutes, 95° C. for 10 minutes and 40 cycles of 95° C. for 15 sec and 60° C. for 1 minutes and was performed in a 7900HT Fast Real-Time PCR System (Applied Biosystems, USA). Primers used for ANP, BNP, collagen I, Myh6, Myh7, and […] were purchased from Thermofisher and were those in the following Gene Expression Assays (Rn00561661_m1, Rn04219558_g1, Rn01463848_m1, Rn00691721_g1, Rn01488777_g1, and Rn00572010_m1, respectively, reference to assays retrievable from Thermofisher catalogue at Mar. 1, 2017; https://www.thermofisher.com/order/genome-databaseldetails/gene-expression/).

calpain [6] = assay: Proteolysis of α-fodrin after oral gavage, 60 minutes of reperfusion; assay type: in vivo, rat; details: 120 mg/kg orally (gavage); after 60 minutes of reperfusion
Sprague-Dawley rats [7] = assay: Inflammatory cell infiltration (CD68 immunohistochemistry) in hearts reperfused for 3 days; assay type: in vivo, rat; details: 3 days of reperfusion
Method: Sprague-Dawley rats (250-300 g) were premedicated with atropine (0.05 mg/kg ip), anaesthetized with ketamine (75 mg/kg ip) and xylazine (10 mg/kg ip), and mechanically ventilated (Inspira ASV, Harvard Apparatus). Anaesthesia was maintained with 1-2% isoflurane and body temperature controlled with a heating pad to 36-37° C. The heart was exposed through the fourth intercostal space and the left anterior descending coronary artery (LAD) ligated using 6/0 silk suture (Ethicon Endo-surgery, OH, USA), 1 mm distal to left atrial appendage. After occlusion for 30 min, the suture was loosened to start reperfusion and buprenorphine (0.05 mg/kg per 6 h, subcutaneously) was given for 48 h. Mice with lack of ST-elevation during ischemia or lack of ST-recovery at reperfusion were excluded from further evaluation.
Macrophage infiltration in the non-infarcted myocardium was analyzed by immunohistochemistry in hearts reperfused for 3 days (n=4 per group).
Myocardial sections were exposed to H2O2/methanol, levamisol (DakoCytomation) and avidin/biotin blocking (Vector Laboratories) to neutralize endogenous peroxidase, phosphatase and biotin, respectively. Sections were probed with CD68 (AbD Serotec) for monocytes/macrophages, incubated with a biotinylated secondary antibody (1:200, ABC Peroxidase standard stainig kit, Thermo Scientific) in 2% normal blocking serum and visualized using 3, 3′-diaminobenzidine (DAB, Sigma). Six random photomicrographs from the infarct area and six from the non-infarcted area for each heart (n=6 per group) were taken at 200× magnification.

[8] = target: T1, matrix metalloproteinase-2 (MMP-2) (Rattus norvegicus, UniProt P33436); assay: MMP-2 gelatinolytic activity by gelatin zymography of myocardial extracts; assay type: biochemical; details: 5, 10 and 50 μM, incubated overnight at 37° C.
T1 construct: myocardial preparations obtained from rats reperfused for 21 days (control group); from tissue; host or cells: rat myocardium (extracts after 21 days of reperfusion)
T1 sequence (P33436 110-662): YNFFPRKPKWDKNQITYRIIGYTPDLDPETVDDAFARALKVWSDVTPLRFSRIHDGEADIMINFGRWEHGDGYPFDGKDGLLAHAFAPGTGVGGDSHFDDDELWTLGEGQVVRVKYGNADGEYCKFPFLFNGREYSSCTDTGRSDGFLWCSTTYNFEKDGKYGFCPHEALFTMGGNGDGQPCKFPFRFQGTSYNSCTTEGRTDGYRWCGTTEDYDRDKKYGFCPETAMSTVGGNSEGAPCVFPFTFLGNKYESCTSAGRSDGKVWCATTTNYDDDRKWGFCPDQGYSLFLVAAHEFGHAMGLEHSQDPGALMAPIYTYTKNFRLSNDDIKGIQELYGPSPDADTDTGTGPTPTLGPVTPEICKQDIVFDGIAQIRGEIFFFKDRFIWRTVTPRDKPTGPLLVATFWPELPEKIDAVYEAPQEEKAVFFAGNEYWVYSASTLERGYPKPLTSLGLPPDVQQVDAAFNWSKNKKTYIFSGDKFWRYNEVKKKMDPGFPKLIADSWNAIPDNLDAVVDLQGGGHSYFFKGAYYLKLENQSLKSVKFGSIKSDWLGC
Method: Activity of MMP-2 was evaluated by gelatin zymography. Briefly, myocardial preparations obtained from rats reperfused for 21 days (control group) were run on a 10% polyacrylamide gel copolymerized with 1.5 mg/ml gelatin. After washing with 2.5% Triton X-100, gels were cut into strips and incubated separately, overnight, in zymography buffer with SNJ-1945 at the concentrations of 5, 10 and 50 μM, DMSO as a vehicle control or the selective MMP inhibitor ONO-4817 (N-[(1 S,3S)-1-[(Ethoxymethoxy)methyl]-4-(hydroxyamino)-3-methyl-4-oxobutyl]-4-phenoxybenzamide) (50 μM, Tocris). It was further examined MMP-2 activity (as % of 0 μM) in samples prepared from animals receiving SNJ-1945 by oral gavage and reperfused for 21 days (Chronic group). Gels were stained in 0.25% Coomassie Brilliant blue G, 40% methanol, and gelatinolytic activities quantitated after destaining.

calpain [9] = assay: Isolated rat hearts subjected to ischemia/reperfusion, calpain-specific α-fodrin breakdown products; details: perfusion of isolated rat hearts, data not shown
[10] = SNJ-1945 orally once a day with isoproterenol 5 mg/Kg/day
[11] = oral co-administration with ISO

CCN(CC)Cc1ccc(/C=C/c2ccccc2C(=O)NC(Cc2ccccc2)C(=O)C(N)=O)cc1 (centres unmarked) [A-705253]
Hemodynamic and contractile function [1]: improved | Infarct size [1]: reduced | Cardioprotective effect [2]: cardioprotective effect

COCCOCCOC(=O)N[C@@H](CC(C)C)C(=O)N[C@@H](Cc1ccccc1)C(=O)C(=O)NC1CC1 [SNJ-1945, ((1S)-1-((((1S)-1-benzyl-2,3-dioxo-3-(cyclopropylamino)-propyl)amino)carbonyl)-3-methylbutyl)carbamic acid 5-methoxy-3-oxapentyl ester]
LV dilation and dysfunction (echocardiography: LVEDD, LVESD, EF) (Sprague-Dawley rats [3]; Ac+Chr group: acute ip plus oral 14 days, measured at 1 week of reperfusion vs control): significantly attenuated | Attenuation of scar area (LV area stained with picrosirius red) (Sprague-Dawley rats [3]; Ac+Chr group, P=0.003): 33.7% | Levels of α-SMA (marker of fibroblast activation, western-blot) (Sprague-Dawley rats [3]; Ac+Chr group, P=0.009): reduced | Interstitial fibrosis, acute and chronic phase combined (Sprague-Dawley rats [3]; Ac+Chr group, P=0.016): No further reduction | β-MHC protein levels (western-blot, relative to GAPDH) (Sprague-Dawley rats [3]; Ac+Chr group, P=0.019): attenuated | Cardiomyocyte hypertrophy (cross-sectional area, non-ischemic myocardium) (Sprague-Dawley rats [3]; Ac+Chr group, P=0.021): significantly reduced | LV dilatation, ejection fraction and scar area: combination vs individual treatments (Sprague-Dawley rats [3]; Ac+Chr vs acute or chronic alone): did not result in a statistically significant improvement | Hypertrophy markers: additive effect when both treatments were combined (Sprague-Dawley rats [3]; Ac+Chr vs single treatments): No significant additive effect | Cardiomyocyte hypertrophy (cross-sectional area, non-ischemic myocardium) (Sprague-Dawley rats [3]; Acute group): not acute | β-MHC protein levels (western-blot, relative to GAPDH) (Sprague-Dawley rats [3]; Acute group): attenuated only in groups treated chronically | Attenuation of scar area (LV area stained with picrosirius red) (Sprague-Dawley rats [3]; Acute group, 120 mg/kg ip at reperfusion, P=0.002): 29.1% | LV dilation and dysfunction (echocardiography: LVEDD, LVESD, EF) (Sprague-Dawley rats [3]; Acute group: 120 mg/kg intraperitoneally 5 min before reperfusion, measured at 1 week of reperfusion vs control): significantly attenuated | Interstitial collagen deposition in the non-infarcted area (Sprague-Dawley rats [3]; Acute group, P=0.109): not acute treatment | Attenuation of scar area (LV area stained with picrosirius red) (Sprague-Dawley rats [3]; Chronic group, 120 mg/kg oral 14 days from 24 h of reperfusion, P=0.036): 22.7% | LV dilation and dysfunction (echocardiography: LVEDD, LVESD, EF) (Sprague-Dawley rats [3]; Chronic group: 120 mg/kg orally over 14 days starting after 24 h of reperfusion, at 21 days of reperfusion vs control): significantly attenuated | Levels of α-SMA (marker of fibroblast activation, western-blot) (Sprague-Dawley rats [3]; Chronic group, P=0.012): reduced | Interstitial collagen deposition in the non-infarcted area (Sprague-Dawley rats [3]; Chronic group, P=0.029): reduced | β-MHC protein levels (western-blot, relative to GAPDH) (Sprague-Dawley rats [3]; Chronic group, P=0.036): attenuated | Cardiomyocyte hypertrophy (cross-sectional area, non-ischemic myocardium) (Sprague-Dawley rats [3]; Chronic group, P=0.041): significantly reduced | Echocardiographic parameters, acute vs chronic treatment (Sprague-Dawley rats [3]; at the end of the experiment (21 days)): No significant differences | Survival rate between groups (Sprague-Dawley rats [3]; control, acute, chronic, Ac+Chr, overall mortality rate 12.5%): no differences | Left ventricular dysfunction after cardioplegic arrest [4]: prevents left ventricular dysfunction | Increase in heart weight induced by isoproterenol (Sprague-Dawley rats [5]; [10]): reduces the increase | Increase in interventricular wall (IVSWT) thickness induced by isoproterenol, echocardiography (Sprague-Dawley rats [5]; [10]): reduces the increase | Increase in posterior wall (PWT) thickness induced by isoproterenol, echocardiography (Sprague-Dawley rats [5]; [10]): reduces the increase | ANP mRNA levels (PCR) (Sprague-Dawley rats [5]; [11]): reduced | BNP mRNA levels (PCR) (Sprague-Dawley rats [5]; [11]): reduced | Calpain activation (Sprague-Dawley rats [5]; [11]): attenuated | Cardiomyocyte crossectional area (Sprague-Dawley rats [5]; [11]): reduced | Expression of TGFβ induced by ISO (PCR) (Sprague-Dawley rats [5]; [11]): significantly reduced | Expression of collagen I induced by ISO (PCR) (Sprague-Dawley rats [5]; [11]): significantly reduced | Intraventricular collagen deposition induced by ISO (Sprague-Dawley rats [5]; [11]): significantly reduced | β-MHC/α-MHC ratio (PCR) (Sprague-Dawley rats [5]; [11]): reduced | Proteolisis of α-fodrin (calpain [6]): significantly reduced | Infiltration of monocytes/macrophages: acute and chronic treatments combined (Sprague-Dawley rats [7]; Ac+Chr group, P<0.001): no significant additive effect | Infiltration of monocytes/macrophages (CD68+) in the ischemic area (Sprague-Dawley rats [7]; Acute group, P=0.002): attenuate | Infiltration of monocytes/macrophages (CD68+) in the non-ischemic area (Sprague-Dawley rats [7]; Acute group, P=0.046): attenuate | Infiltration of monocytes/macrophages (CD68+) in the non-ischemic area (Sprague-Dawley rats [7]; Chronic group, P=0.001): attenuate | Infiltration of monocytes/macrophages (CD68+) in the ischemic area (Sprague-Dawley rats [7]; Chronic group, P=0.028): attenuate | MMP-2 activity (gelatinolytic) [8]: does not inhibit | Calpain-specific α-fodrin breakdown products (calpain inhibition) (calpain [9]): dose-dependent reduction
